Assay results published in patent US12351819B2, “Method for removing undifferentiated pluripotent stem cells” (priority 2017, dated 2025).

What was measured:
hESCs = experiment: Alamar blue assay, hESCs; assay type: cell-based, human; details: FIG. 12
Method: Alamar blue assay measured the relative cell number. In the cells, we added 1/10 of Alamar Blue Viability Assay reagent to the total volume of the mixture (Biotium; Fremont, CA, USA). The cells were incubated overnight at 37° C. The resulted were quantified by the measurement of optical density (OD) absorbance values at 570 nm and 600 nm, and the relative cell number was calculated.

hiPSCs = details: Table 1; hiPSCs
Method: (§1) The supernatants of cells treated with digoxin […], lanatoside C 2.5 μm, or DMSO solvent control for 24 hours were harvested. The released LDH was measured using CytoTox 96 […] assay according to the manufacture's instruction (Promega, Southampton, UK). The supernatants and reagents were incubated at room temperature for 20 minutes and then the reaction was stopped by Stop Solution. The absorbance at 490 nm was measured using a plate-reading spectrophotometer (Benchmark Plus Microplate Spectrophotometer System, BIO-RAD, CA, USA).
hiPSC-derived endothelial cells were prepared according in a previous report^34. The hiPSCs were maintained in mTeSR 1 medium ([…] Technologies, Vancouver, Canada) on VTN-N coated plates (Thermo, Wilmington, DE, USA). First, for the stepwise induction of differentiation, we performed a mesoderm induction of hiPSCs seeded in mesoderm induction medium for 48 hours (basal medium with […], […], and 2 ng/ml of Activin A; basal medium was composed of 12 g/L of DMEM/F-12, 3.56 g/L of HEPES, 1.742 g/L of sodium bicarbonate, 14 μg/L of sodium selenite, 10.7 mg/L of recombinant transferrin, 19.4 mg/L of recombinant insulin, and 64 mg/L of L-Ascorbic acid 2-phosphate sesquimagnesium salt hydrate). Second, for the mesoderm to endothelium transition, mesoderm cells were reseeded in vasculogenic medium (basal medium with 2 mg/ml of PVA plus 20 ng/ml of hVEGF-A) for an additional 72 hours. All differentiated cells were plated on VTN pre-coated culture plate dishes. The endothelial cells were analyzed on day 5 by flow cytometry staining with the CD31 (PECAM1, ThermoFisher Scientific, Wilmington, DE, USA) and CD144 (CDH5, ThermoFisher Scientific) antibodies.

hESCs (H9) = details: for LDH assay positive, hESCs: Table 1; for cytotoxic effect (LDH release) in hESCs: 2.5 μM, 24 hours, vs DMSO
Method: The hESC line H9 was purchased from WiCells (Madison, WI, USA)^27. Another hESC line, HUES6, was kindly provided by Dr. Douglas A. Melton (Harvard University, Boston, MA, USA)^28. Cells were maintained on the feeder cells and cultured in Dulbecco's modified Eagle's medium (DMEM)/F12 supplemented with 20% knockout serum replacement, 2 mM L-glutamine, 1% nonessential amino acids, 4 ng/mL human bFGF, and 0.1 mM 2-mercaptoethanol. For the feeder cells culture, C57BL/6 mouse embryonic fibroblasts (MEF) were cultured in the DMEM with 10% FBS and treated cells with 0.01 mg/ml mitomycin C 2-6 hours for inactivation. For the feeder-free culture, hESCs were seeded on the Matrigel Matrix (BD Biosciences, San Jose, CA, USA) coated culture plates and maintained by conditioned medium of MEF (C57BL/6). hBMMSCs were cultured in mesenPRO RS™ kit (Life Technologies, Camarillo, CA, USA). All cells were cultured in a humidified atmosphere containing 5% CO2 at 37° C.
as §1

[1] = test system: hESC-hepatocyte endoderm cells; experiment: LDH cytotoxicity assay in hESC-derived hepatocyte endoderm; assay type: cell-based, human; details: Table 1
Method: This protocol followed a method previously published in Nature Protocols^36. The hESCs were detached by 0.5 mM EDTA (Life Technologies, Camarillo, C, USA), seeded on VTN-N coated culture plates (Corning) and maintained for 48 hours in mTeSR 1 medium. Then, the medium was refreshed daily for all following steps. On days 1-2, the medium was replaced with fresh CDM-PVA (consisting of 0.5 g of PVA (Sigma) dissolved in 250 ml of IMDM/F-12, GlutaMAX (Invitrogen), 250 ml of IMDM (Invitrogen), 5 ml of chemically defined lipid concentrate (Invitrogen), 20 of thioglycerol 97% (Sigma), 350 of insulin (10 mg/ml; Roche), 250 of transferrin (30 mg/ml; Roche) plus Activin A (100 ng/ml; R&D), bFGF (80 ng/ml; R&D), BMP4 (10 ng/ml; R&D), and […] of LY-294002 (Promega). On day 3, the cells were differentiated in RPMI Medium supplemented with Activin A (100 ng/ml) and bFGF (80 ng/ml). On days 4-6, the cells were expanded in RPMI medium supplemented with Activin A (50 ng/ml). On day 7, the cells were passaged and re-plated 105,000 cells/cm^2 cells in VTN-N coated culture plates in RPMI containing Activin A (50 ng/ml) and Y-27632 2HCl (10 μM Selleck-chem, Houston, TX, USA and Munich, Germany). Then, the cells were maintained in RPMI+Activin A (50 ng/ml) on days 8-11. The cells were differentiated into the hepatocyte endoderm and analyzed following the drug treatments. The expression of alpha-fetoprotein (A0008, Dako, Santa Clara, CA, USA) was analyzed in the hepatocyte endoderm via immunofluorescence staining.

hPSCs teratoma formation = details: background, literature; cited from earlier work
hPSCs = details: background, literature; cited from earlier work
PERK/AT4/DDIT3 pathway = details: through the PERK/AT4/DDIT3 pathway; literature; cited from earlier work
H9 hESC-MSCs = details: 2.5 μM, 24 hours
Method: as §1
According to the report from Dr. Xu and colleagues^30, hESCs were cultured with 10 ng/ml BMP4 and 1 μM of A8301 for 5 days. Next, the cells were passaged on the gelatin-coated plate and the culture medium was switched to MSC culture medium [Minimum Essential Medium Eagle Alpha Modification (αMEM) medium supplemented with 20% fetal bovine serum (FBS), 1-glutamine (Gluta-MAX), 1× nonessential amino acids]. Cells were expanded within passage 5, and CD73^+ (11-0793, ThermoFisher Scientific) and CD105^+ (12-1057, ThermoFisher Scientific) double positive cells were sorted.
hESC-derived MSCs were trypsinized and washed with PBS. Then cells were incubated with anti-human CD73 FITC (ThermoFisher Scientific) and anti-human CD105 PE (ThermoFisher Scientific) for 15 minutes at 4° C. Cells were washed cells with PBS for three times. CD73^+/CD105^+ cells were sorted with the cell sorter (BD FACSAria II, BD Biosciences). Sorted cells were maintained in MSC culture medium.

| Compound | cell death in hESCs (Alamar blue, relative cell number) (hESCs) | LDH assay positive, hiPSCs (hiPSCs) | LDH assay positive, hESCs (hESCs (H9)) | LDH assay positive, hepatocyte endoderm cells [1] | teratoma formation in hPSCs (hPSCs teratoma formation) | selective cell death (hPSCs) | ER stress (PERK/AT4/DDIT3 pathway) | cytotoxic effect (LDH release) in hESCs (hESCs (H9)) | cytotoxicity (LDH release) in H9 hESC-MSCs (H9 hESC-MSCs) |
| --- | --- | --- | --- | --- | --- | --- | --- | --- | --- |
| C[C@@H]1O[C@@H](O[C@H]2C[C@@H](O)[C@]3(CO)[C@H]4[C@H](O)C[C@]5(C)[C@@H](C6=CC(=O)OC6)CC[C@]5(O)[C@@H]4CC[C@]3(O)C2)[C@H](O)[C@H](O)[C@H]1O [Ouabain, ouabain] | dose dependent manner | +++ (more than 70% positive cells) | +++ (more than 70% positive cells) | −/+ (10% positive cells) | – | – | – | – | – |
| COCCn1c2c([n+](Cc3cnccn3)c1C)C(=O)c1ccccc1C2=O [YM155] | – | – | – | – | efficiently inhibited teratoma formation | induced selective cell death | – | – | – |
| CCCCCCCCC(=O)NCc1ccccc1 [JC011] | – | – | – | – | – | – | induced ER stress | – | – |
| O=C(NNc1ccccc1)c1ccncc1 [PluriSin #1] | – | – | – | – | prevented teratoma formation | – | – | – | – |
| C[C@]12CC[C@H](O)C[C@H]1CC[C@@H]1[C@@H]2CC[C@]2(C)[C@@H](c3ccc(=O)oc3)CC[C@]12O [Bufalin, bufalin] | – | +++ (more than 70% positive cells) | +++ (more than 70% positive cells) | −/+ (10% positive cells) | – | – | – | induced cytotoxicity | do not induce cytotoxicity |
| C[C@]12CC[C@H](O)C[C@H]1CC[C@@H]1[C@@H]2CC[C@]2(C)[C@@H](C3=CC(=O)OC3)CC[C@]12O [Digitoxigenin, digitoxigenin] | dose dependent manner | +++ (more than 70% positive cells) | +++ (more than 70% positive cells) | −/+ (10% positive cells) | – | – | – | – | – |
| O=c1c(O)c(-c2ccc(O)c(O)c2)oc2cc(O)cc(O)c12 [quercetin] | – | – | – | – | efficiently inhibited teratoma formation | induced selective cell death | – | – | – |
| C[C@@H]1O[C@@H](O[C@@H]2C=C3CC[C@@H]4[C@H](CC[C@]5(C)[C@@H](c6ccc(=O)oc6)CC[C@]45O)[C@@]3(C)CC2)[C@H](O)[C@H](O)[C@H]1O [Proscillaridin A, proscillaridin A] | dose dependent manner | +++ (more than 70% positive cells) | +++ (more than 70% positive cells) | −/+ (10% positive cells) | – | – | – | induced cytotoxicity | do not induce cytotoxicity |
| C[C@H]1O[C@@H](O[C@H]2[C@@H](O)C[C@H](O[C@H]3[C@@H](O)C[C@H](O[C@H]4CC[C@@]5(C)[C@H](CC[C@@H]6[C@@H]5CC[C@]5(C)[C@@H](C7=CC(=O)OC7)CC[C@]65O)C4)O[C@@H]3C)O[C@@H]2C)C[C@H](O)[C@@H]1O [Digitoxin, digitoxin] | dose dependent manner | +++ (more than 70% positive cells) | +++ (more than 70% positive cells) | −/+ (10% positive cells) | – | – | – | – | – |
